6 compounds from patent US9820972B2, “Antiviral compounds highly effective as HCV-NS5A inhibitor” (priority 2013, dated 2017) can be followed below.

Read-outs that look alike come from different tables or passages of the source.

The test system of one data set is GT-1a of NS5A Replicon. Description: HCV double reporter gene (Renilla luciferase) replicon assay, GT-1a. It counts as cell-based, Hepatitis C virus (HCV). The settings on record: Hepatitis C virus. The method, boiled down:
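Replication measured in a double-reporter HCV replicon cell system by Renilla luciferase signal. EC50 from 8-point 2-fold dilutions, triplicate wells, three repeats, with 1 or 2 control drugs.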
(In general: In a reporter assay the amount or activity of a reporter protein is the signal.)

A further data set deals with HCV NS5A Replicon GT-6a. Description: HCV double reporter gene replicon assay, GT-6a. It counts as cell-based. To be noted: Hepatitis C virus, genotype 1a / genotype 6a; GT-6a replicon. Here is the method:
(§1) Antiviral Assay for Inhibition Activity (EC50):
(§2) The study is completed by a new constructed double reporter genes replicon assay system, the capacity of viral replicon in infected cell is determined by detecting the reporter gene Renilla luciferase. The relationship of reporter genes, HCV RNA replicon and viral proteins is well linear. 8 gradient concentrations for 2-fold dilution, 3 wells, 3 times repetition and 1 or 2 control drugs are set to finally determine EC50 of compound.
(§3) THF was distilled from sodium metal and benzophenone. DCM, pentane and hexane were distilled form calcium hydride. Special raw material and intermediate in the invention were ordered by contract synthesis from Zannan SciTech Co., Let in China, others reagents were purchased from Shanghai reagent company, Aldrich, Acros etc. As intermediates or products during the synthesis is not required for the reaction and other tests the next step, the synthesis is repeated until a sufficient number of times. The invention of the prepared compounds of […] (HCV NS5A) inhibitory activity test was performed by CRO service units such as WuXi AppTec etc.

A further data set relates to HCV NS5A Replicon GT-2a. Description: HCV double reporter gene replicon assay, GT-2a. The class given is cell-based. The settings on record: Hepatitis C virus, genotype 1a / genotype 2a / genotype 6a; GT-2a replicon. The procedure:
as §1, §2, §3

For another data set, the system named is HCV NS5A Replicon GT-1b. Description: HCV double reporter gene replicon assay, GT-1b. It counts as cell-based. The settings on record: Hepatitis C virus, genotype 1a / genotype 1b / genotype 6a; GT-1b replicon. Here is the method: as §1, §2, §3
Data set [1] in a line: Acute Toxicity Study (MTD). The class given is in vivo, rats and mice. To be noted: rats or mice, fed once, oral dose 10000 mg/kg, observed for a week. The source says: Acute Toxicity Study (MTD):
Materials and Methods for MTD Study are as follows:
Animals were fed freely for adaptation more than 1 week. Healthy rats, body weight between 170-190 g, were divided randomly into 3 groups, 5 male and 5 female in each group. Healthy mice, body weight between 18-22 g, were divided randomly into 22 groups, 5 male and 5 female in each group.
In rats, the compound weighing 21.00 g, serial number 1-3 respectively, adding 0.7% sodium carboxymethyl cellulose solution 30.00 g, high-speed homogenizer machine 15000 RPM, 10 min mixing, the rats were fed once, oral dose 10000 mg/kg. In mice, the compound weighing 2.00 g, serial number 4-25 respectively, adding 0.7% sodium carboxymethyl cellulose solution 8.00 g, high-speed homogenizer machine 10000 RPM, 10 min mixing, the mice were fed once, oral dose 10000 mg/kg.
Animals were observed every hour after administration in the first day, and behavior observation daily continuous for a week. Dead animals were necropsied, gross pathology of the organs were observed and recorded.
Toxicity was evaluated by animal mortality, signs of clinical behavior and others.

The subject of the next data set is HCV NS5A Replicon GT-5a. Description: HCV double reporter gene replicon assay, GT-5a. It counts as cell-based. To be noted: Hepatitis C virus, genotype 1a / genotype 5a / genotype 6a; GT-5a replicon. Here is the method:
as §1, §2, §3

In another data set the test system is HCV NS5A Replicon GT-3a. Description: HCV double reporter gene replicon assay, GT-3a. The class given is cell-based. The settings on record: Hepatitis C virus, genotype 1a / genotype 3a / genotype 6a; GT-3a replicon. Here is the method: as §1, §2, §3
The test system of the next data set is HCV NS5A Replicon GT-4a. Description: HCV double reporter gene replicon assay, GT-4a. It counts as cell-based. The settings on record: Hepatitis C virus, genotype 1a / genotype 4a / genotype 6a; GT-4a replicon. Here is the method: as §1, §2, §3
Where [2] appears, read: genotype 1a / genotype 6a, read-out: EC50 for Replicon (pM) of GT-1a to GT-6a: 1a.

The term EC50 denotes the concentration giving half of the maximal effect. `COC(=O)N[C@H](C(=O)N1CCC[C@H]1c1ncc(-c2ccc(-c3cc4sc(-c5cnc([C@@H]6C=CCN6C(=O)[C@H](NC(=O)OC)c6ccccc6)[nH]5)cc4s3)cc2)[nH]1)C(C)C` [Compound 6fm]: the EC50 is 9 pM with GT-1a of NS5A Replicon (setting [2]), 23 pM with HCV NS5A Replicon GT-6a, 8 pM with HCV NS5A Replicon GT-2a and 13 pM in the data set on HCV NS5A Replicon GT-1b. Also, the “MTD results: test-article related death and adverse events” value (“MTD results” for short) in data set [1] is “no any test-article related death and no any adverse events observed”.
Take `COC(=O)N[C@H](C(=O)N1CCC[C@H]1c1nc(-c2ccc(-c3ccc(-c4c[nH]c([C@@H]5CCCN5C(=O)[C@@H](NC(=O)OC)C(C)C)n4)cc3)cc2)c[nH]1)C(C)C` [Ref-1, reference compound]: the EC50 in the data set on GT-1a of NS5A Replicon (setting [2]) is 52 pM; with HCV NS5A Replicon GT-6a, 118 pM; in the data set with HCV NS5A Replicon GT-2a, 29 pM; in the data set with HCV NS5A Replicon GT-1b, 21 pM.
For `COC(=O)N[C@H](C(=O)N1CC=C[C@H]1c1ncc(-c2ccc(-c3ccc(-c4c[nH]c([C@@H]5CCCN5C(=O)[C@@H](NC(=O)OC)C(C)C)n4)cc3)cc2)[nH]1)C(C)C` [Compound 6ba], the EC50 in the data set with GT-1a of NS5A Replicon (setting [2]) turned out to be 39 pM; in the data set with HCV NS5A Replicon GT-6a, 221 pM; with HCV NS5A Replicon GT-2a, 16 pM; with HCV NS5A Replicon GT-1b, 12 pM. For the same compound, the “MTD results” value in data set [1] is “no any test-article related death and no any adverse events observed”.
Consider `COC(=O)N[C@H](C(=O)N1CCC[C@H]1c1nc(-c2ccc(-c3ccc(-c4cnc([C@@H]5C=CCN5C(=O)[C@H](NC(=O)OC)c5ccccc5)[nH]4)cc3)cc2)c[nH]1)C(C)C` [Compound 6dy], for which the EC50 came out at 11 pM in the data set with GT-1a of NS5A Replicon (setting [2]), 24 pM in the data set with HCV NS5A Replicon GT-6a, 6 pM with HCV NS5A Replicon GT-2a and 14 pM in the data set on HCV NS5A Replicon GT-1b.
On to `COC(=O)N[C@@H](C(=O)N1CC=CC1c1nc(-c2ccc(-c3cc4sc(-c5c[nH]c(C6CCCN6C(=O)[C@H](NC(=O)OC)c6ccccc6)n5)cc4s3)cc2)c[nH]1)c1ccccc1` (some centres unmarked) [Compound 6fd], for which the EC50 was 1 to 999 pM in the data set on GT-1a of NS5A Replicon (GT1A, GT-1a replicon, class symbols, read-out: EC50 For GT-1a of NS5A Replicon); 21 pM with GT-1a of NS5A Replicon (setting [2]); 111 pM with HCV NS5A Replicon GT-6a; 5 pM with HCV NS5A Replicon GT-2a; 11 pM with HCV NS5A Replicon GT-1b; 23 pM with HCV NS5A Replicon GT-5a. For the same compound, the EC50 in the data set with HCV NS5A Replicon GT-3a came to 15 pM; with HCV NS5A Replicon GT-4a it was 8 pM. For the same compound, in data set [1], the “MTD results” value is “no any test-article related death and no any adverse events observed”.
For `COC(=O)N[C@H](C(=O)N1CC=C[C@H]1c1ncc(-c2ccc(-c3cc4sc(-c5cnc([C@@H]6CCCN6C(=O)[C@H](NC(=O)OC)c6ccccc6)[nH]5)cc4s3)cc2)[nH]1)C(C)C` [Compound 6fi], the EC50 with GT-1a of NS5A Replicon (setting [2]) was 20 pM; in the data set on HCV NS5A Replicon GT-6a it was 55 pM; in the data set with HCV NS5A Replicon GT-2a it was 7 pM; with HCV NS5A Replicon GT-1b, 5 pM. Also, the “MTD results” value in data set [1] was “no any test-article related death and no any adverse events observed”.
